What was measured:
Echinochloa crus-galli = experiment: External application of the compound to Echinochloa crus-galli seeds on agar medium, radicle and embryo length; assay type: in vivo; conditions: 500 mg/L in 0.8% agar, 28° C., 3 days in the dark, 3 biological repeats
Procedure: I. Procedures for External Application of the Compound to Lettuce and Echinochloa crus-galli Compounds to be tested: isoorientin and isoorientin-2″-O-glucopyranoside. (1) The compounds to be tested were dried into powder with a centrifugal concentrator and weighed, a proper amount of sterile water was added to make its final concentration to be 10 mg/mL. (2) 500 mL of 0.8% agar was prepared and sterilized in an autoclave. […] solution of the compounds to be tested at a concentration of 10 mg/mL were added to make the final concentration of the compounds to be 500 mg/L. The medium containing the compound to be tested was quickly poured into a 10 cm×10 cm square dish, and the square dish was shaken quickly so that the medium was evenly spread in the square dish. The medium added with equal amount of sterile water was used as control. (4) The seeds of Echinochloa crus-galli were washed with distilled water for several times, and then placed on sterile filter paper to dry. (5) After the medium had solidified, the seeds of Echinochloa crus-galli were placed with sterile tweezers on the medium, and 26 seeds were placed in each petri dish (2 rows, with 13 seeds in each row). Each treatment had 3 biological repeats. (6) The petri dishes were placed in an incubator at 28° C. for 3 days in the dark. (7) Phenotypic statistics: after 3 days, the length of radicle and embryo of each treated material were counted.

[1] = test system: Os02g0589400 recombinant protein; experiment: In vitro enzymatic activity of Os02g0589400 (glycosylation of isoorientin with UDPG, UPLC-QTOF/MS); assay type: biochemical, Oryza sativa L. ssp. japonica cv. Zhonghua 11 (ZH11); conditions: glycosyl donor UDPG, Tris-HCl pH 7.0, 30° C., 1 hour
Procedure: The enzymatic activity reaction system was: 38 μL of Tris-HCl (pH 7.0, 50 mM, containing 10 mM DTT), 1 μL of 10 mM glycosyl receptor (the glycosyl receptor of Os02g0589400 is isoorientin), 1 μL of 100 mM glycosyl donor (UDPG), and 10 μL of 2.03 μg/μL of recombinant protein of Os02g0589400 obtained in (2). React in water bath at 30° C. for 1 hour, and then stop the reaction with equal volume of methanol. A sample containing protein obtained from E. coli into which a pMAL-c2X mock vector was transferred according to the above step (2) was taken as the negative control. Centrifuge at 12,000 rpm, 4° C. for 10 min, 30 μL of the resulting supernatant was taken and measured by UPLC-QTOF/MS, and the measuring method was the same as that shown in Example 1.

Compound: O=c1cc(-c2ccc(O)c(O)c2)oc2cc(O)c([C@@H]3O[C@H](CO)[C@@H](O)[C@H](O)[C@H]3O[C@@H]3O[C@H](CO)[C@@H](O)[C@H](O)[C@H]3O)c(O)c12 [isoorientin-2″-O-glucopyranoside]
- embryo length of Echinochloa crus-galli compared with the control (Echinochloa crus-galli): no significant difference
- radicle length of Echinochloa crus-galli compared with the control (Echinochloa crus-galli): no significant difference

Compound: O=c1cc(-c2ccc(O)c(O)c2)oc2cc(O)c([C@@H]3O[C@H](CO)[C@@H](O)[C@H](O)[C@H]3O)c(O)c12 [isoorientin]
- embryo length of Echinochloa crus-galli compared with the control (Echinochloa crus-galli): no significant difference
- radicle length of Echinochloa crus-galli compared with the control (Echinochloa crus-galli): significantly shortened
- glycosylation of the glycosyl receptor by Os02g0589400 recombinant protein compared with the mock control [1]: could catalyze isoorientin to produce isoorientin-2″-O-glucopyranoside

From patent US20250134102A1, “USE OF FLAVONOID GLYCOSIDE IN RESISTANCE OF WEEDS IN RICE” (INSTITUTE OF BOTANY, THE CHINESE ACADEMY OF SCIENCE, priority 2021, published 2025)
